One assay addresses GCGR (Homo sapiens, UniProt P47871). The experiment in a line: GCGR activation CRE-Luc reporter assay in vitro. The class given is cell-based. In general terms: A reporter such as luciferase makes a cellular process visible.
In another assay the target is human serum albumin (human, UniProt P02768 25-609). The experiment in a line: ITC.

Chain of GCGR (P47871 26-477): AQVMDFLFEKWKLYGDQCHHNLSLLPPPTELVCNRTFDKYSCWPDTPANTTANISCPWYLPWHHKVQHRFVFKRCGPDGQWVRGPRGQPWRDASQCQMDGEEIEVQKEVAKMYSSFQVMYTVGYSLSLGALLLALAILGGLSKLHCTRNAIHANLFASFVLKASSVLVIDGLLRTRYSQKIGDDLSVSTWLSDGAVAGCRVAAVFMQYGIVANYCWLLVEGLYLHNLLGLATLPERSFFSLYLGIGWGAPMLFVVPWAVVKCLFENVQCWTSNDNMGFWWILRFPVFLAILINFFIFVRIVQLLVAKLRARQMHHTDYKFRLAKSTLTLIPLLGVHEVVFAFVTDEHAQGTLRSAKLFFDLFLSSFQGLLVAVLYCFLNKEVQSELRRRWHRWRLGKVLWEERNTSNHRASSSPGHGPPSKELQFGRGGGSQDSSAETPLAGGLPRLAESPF

As a reminder, the EC50 is the concentration that produces a half-maximal response. As to `CCCCCCCCCCCCCCCC(=O)N[C@@H](CCC(=O)NCCCC[C@H](NC(=O)[C@H](C)NC(=O)[C@H](C)NC(=O)[C@H](CCC(N)=O)NC(=O)CNC(=O)[C@H](CCC(=O)O)NC(=O)[C@H](CC(C)C)NC(=O)[C@H](Cc1ccc(O)cc1)NC(=O)[C@H](CO)NC(=O)[C@H](CO)NC(=O)[C@@H](NC(=O)[C@H](CC(=O)O)NC(=O)[C@H](CO)NC(=O)[C@@H](NC(=O)[C@H](Cc1ccccc1)NC(=O)[C@@H](NC(=O)CNC(=O)[C@H](CCC(=O)O)NC(=O)[C@H](C)NC(=O)[C@@H](N)Cc1cnc[nH]1)[C@@H](C)O)[C@@H](C)O)C(C)C)C(=O)N[C@@H](CCC(=O)O)C(=O)N[C@@H](Cc1ccccc1)C(=O)N[C@H](C(=O)N[C@@H](C)C(=O)N[C@@H](Cc1c[nH]c2ccccc12)C(=O)N[C@@H](CC(C)C)C(=O)N[C@H](C(=O)N[C@@H](CCCNC(=N)N)C(=O)NCC(=O)N[C@@H](CCCNC(=N)N)C(=O)NCC(=O)O)C(C)C)[C@@H](C)CC)C(=O)O` [Liraglutide, liraglutide], at GCGR, the EC50 is above 1 µM. For orientation: Kd means the free concentration of one partner at which half of the binding sites on the other are occupied at equilibrium, for simple one-to-one binding. Consider GGSGSG [6-amino acid linker GGSGSG], for which the affinity with human serum albumin, expressed as Kd, was 805 µM.

Values taken from PMC10935026 (Acta Pharmaceutica Sinica. B, 2023).
